Source: patent US9802937B2, “Substituted pyrazolo{4,3-D}pyrimidines as kinase inhibitors” (ORIGENIS GMBH, priority 2011, dated 2017)

Legend:
SYK kinase = target: T1, SYK kinase (Homo sapiens, UniProt P43405); test: SYK Assay (OMNIA KINASE ASSAY, SOX peptide fluorescence); type: biochemical; conditions: apparent Ki calculated from the IC50 using the Cheng-Prusoff equation; 1 mM ATP, 30° C.; read-out: SYK Activities: Ki
T1 construct: purchased Invitrogen, Carlsbad
Method in brief: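 Continuous Omnia assay: SYK phosphorylation of SOX-labelled Tyr 7 peptide (10 µM) with 1 mM ATP and 0.2 mM DTT at 30 °C. Fluorescence (ex 360/em 485 nm) read every 30 s for 30 min. Reaction velocity versus inhibitor concentration gives IC50, converted to apparent Ki by Cheng-Prusoff.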

LRRK2 = LRRK2 (Homo sapiens, UniProt Q5S007); test: LRRK2-LRRK2 G2019S-Assay (LanthaScreen Eu Kinase Binding Assay); conditions: 5 nM LRRK2 or their mutants, 10 nM tracer 236, RT 1 h; read-out: LRRK2 Activities: IC50
Method in brief: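 TR-FRET tracer-displacement binding assay with 5 nM LRRK2 or mutant, 2 nM Eu-anti-GST antibody and 10 nM tracer 236 in kinase buffer A. Incubated 1 h at RT; 665/615 nm emission ratio read (ex 340 nm). IC50 from variable-slope sigmoidal fit.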

MYLK = MYLK (Homo sapiens, UniProt Q15746); test: MYLK Assay (LanthaScreen Eu Kinase Binding Assay); conditions: 5 nM MYLK, 30 nM tracer 236, RT 1 h; read-out: MYLK Activities: IC50
Experimental: In the assay LanthaScreen™ Eu Kinase Binding Assay by Invitrogen Corporation (Carlsbad) the effect of invention of a compound on the phosphorylation is determined by measurement of fluorescence intensity emission ratio based on the binding and displacement of a proprietary, Alexa Fluor® 647-labeled, ATP-competitive kinase inhibitor scaffold (kinase tracer) to the kinase of interest as described above.
To the wells of an 384 well small volume plate (Greiner, Frickenhausen) are added (i) the compound under test in 5% is DMSO/distilled water (5 μl), (ii) 5 μl of the kinase antibody mixture resulting in a final concentration 5 nM MYLK, 2 nM EU-Anti-GST antibody in 1× kinase buffer A. The reaction was started with addition of (iii) 5 μl resulting in a final concentration of 30 nM tracer 236. The assay plate was incubated at RT for 1 h and fluorescence intensity readings were collected using a TECAN M1000 at two wavelengths of λex 340/λem 615 nm and λex 340/λem 665 nm with a delay time of 100 μs and an integration time of 200 μs after 60 minutes. The emission ratio was calculated by division of the acceptor/tracer emission ([…]) by the antibody/donor emission ([…]). The inhibitor concentration was plotted versus the emission ratio to determine the IC50 using XLFit 5.0 (IDBS, Guildford) to fit to a sigmoidal dose response curve with a variable slope.

MYLK, sequence (Q15746 whole entry): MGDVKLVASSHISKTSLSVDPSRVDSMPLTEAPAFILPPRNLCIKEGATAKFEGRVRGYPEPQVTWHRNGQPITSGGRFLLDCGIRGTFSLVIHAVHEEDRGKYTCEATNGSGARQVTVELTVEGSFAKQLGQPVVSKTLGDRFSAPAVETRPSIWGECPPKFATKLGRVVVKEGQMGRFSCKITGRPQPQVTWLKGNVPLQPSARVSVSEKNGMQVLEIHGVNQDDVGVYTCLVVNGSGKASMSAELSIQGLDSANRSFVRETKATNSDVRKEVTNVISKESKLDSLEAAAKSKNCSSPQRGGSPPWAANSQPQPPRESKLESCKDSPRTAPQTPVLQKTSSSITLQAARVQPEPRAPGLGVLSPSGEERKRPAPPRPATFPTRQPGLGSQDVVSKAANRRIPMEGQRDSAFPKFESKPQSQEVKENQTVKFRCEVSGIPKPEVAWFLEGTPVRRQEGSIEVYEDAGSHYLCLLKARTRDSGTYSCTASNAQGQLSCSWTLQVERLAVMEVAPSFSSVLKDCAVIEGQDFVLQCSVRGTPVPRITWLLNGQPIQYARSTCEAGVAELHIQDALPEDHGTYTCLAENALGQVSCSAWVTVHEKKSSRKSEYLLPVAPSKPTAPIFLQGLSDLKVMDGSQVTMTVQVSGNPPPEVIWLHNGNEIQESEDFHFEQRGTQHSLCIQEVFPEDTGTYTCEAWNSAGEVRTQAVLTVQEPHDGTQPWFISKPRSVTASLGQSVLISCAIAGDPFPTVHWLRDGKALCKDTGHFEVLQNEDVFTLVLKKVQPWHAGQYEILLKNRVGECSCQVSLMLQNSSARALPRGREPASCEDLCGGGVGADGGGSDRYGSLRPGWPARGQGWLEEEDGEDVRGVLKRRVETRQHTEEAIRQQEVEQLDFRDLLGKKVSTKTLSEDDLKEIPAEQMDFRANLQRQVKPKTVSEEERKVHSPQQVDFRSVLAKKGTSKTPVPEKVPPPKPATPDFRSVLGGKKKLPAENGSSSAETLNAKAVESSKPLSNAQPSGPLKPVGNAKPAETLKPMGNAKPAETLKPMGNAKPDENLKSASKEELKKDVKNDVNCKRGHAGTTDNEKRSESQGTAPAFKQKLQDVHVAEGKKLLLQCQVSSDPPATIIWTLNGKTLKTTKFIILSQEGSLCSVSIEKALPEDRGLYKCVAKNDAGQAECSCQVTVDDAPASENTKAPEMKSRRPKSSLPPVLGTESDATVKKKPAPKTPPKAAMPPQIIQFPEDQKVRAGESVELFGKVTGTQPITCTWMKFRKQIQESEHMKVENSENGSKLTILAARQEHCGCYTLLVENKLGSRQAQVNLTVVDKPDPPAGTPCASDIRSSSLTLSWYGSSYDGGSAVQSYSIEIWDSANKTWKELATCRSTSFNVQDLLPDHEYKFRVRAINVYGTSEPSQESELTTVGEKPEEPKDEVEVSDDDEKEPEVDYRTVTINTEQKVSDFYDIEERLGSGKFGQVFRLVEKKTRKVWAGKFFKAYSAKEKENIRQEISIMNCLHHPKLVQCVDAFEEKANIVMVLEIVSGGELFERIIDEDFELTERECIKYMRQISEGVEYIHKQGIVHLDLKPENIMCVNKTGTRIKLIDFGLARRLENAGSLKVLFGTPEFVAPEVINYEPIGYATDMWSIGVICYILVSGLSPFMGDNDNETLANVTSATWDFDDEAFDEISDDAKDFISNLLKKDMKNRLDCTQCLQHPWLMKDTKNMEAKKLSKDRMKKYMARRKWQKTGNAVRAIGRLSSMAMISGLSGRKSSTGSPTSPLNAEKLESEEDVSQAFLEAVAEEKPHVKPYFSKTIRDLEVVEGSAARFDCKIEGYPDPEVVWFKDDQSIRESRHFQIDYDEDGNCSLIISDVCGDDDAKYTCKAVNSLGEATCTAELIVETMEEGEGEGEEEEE
LRRK2, sequence (Q5S007 970-2527 limits assumed): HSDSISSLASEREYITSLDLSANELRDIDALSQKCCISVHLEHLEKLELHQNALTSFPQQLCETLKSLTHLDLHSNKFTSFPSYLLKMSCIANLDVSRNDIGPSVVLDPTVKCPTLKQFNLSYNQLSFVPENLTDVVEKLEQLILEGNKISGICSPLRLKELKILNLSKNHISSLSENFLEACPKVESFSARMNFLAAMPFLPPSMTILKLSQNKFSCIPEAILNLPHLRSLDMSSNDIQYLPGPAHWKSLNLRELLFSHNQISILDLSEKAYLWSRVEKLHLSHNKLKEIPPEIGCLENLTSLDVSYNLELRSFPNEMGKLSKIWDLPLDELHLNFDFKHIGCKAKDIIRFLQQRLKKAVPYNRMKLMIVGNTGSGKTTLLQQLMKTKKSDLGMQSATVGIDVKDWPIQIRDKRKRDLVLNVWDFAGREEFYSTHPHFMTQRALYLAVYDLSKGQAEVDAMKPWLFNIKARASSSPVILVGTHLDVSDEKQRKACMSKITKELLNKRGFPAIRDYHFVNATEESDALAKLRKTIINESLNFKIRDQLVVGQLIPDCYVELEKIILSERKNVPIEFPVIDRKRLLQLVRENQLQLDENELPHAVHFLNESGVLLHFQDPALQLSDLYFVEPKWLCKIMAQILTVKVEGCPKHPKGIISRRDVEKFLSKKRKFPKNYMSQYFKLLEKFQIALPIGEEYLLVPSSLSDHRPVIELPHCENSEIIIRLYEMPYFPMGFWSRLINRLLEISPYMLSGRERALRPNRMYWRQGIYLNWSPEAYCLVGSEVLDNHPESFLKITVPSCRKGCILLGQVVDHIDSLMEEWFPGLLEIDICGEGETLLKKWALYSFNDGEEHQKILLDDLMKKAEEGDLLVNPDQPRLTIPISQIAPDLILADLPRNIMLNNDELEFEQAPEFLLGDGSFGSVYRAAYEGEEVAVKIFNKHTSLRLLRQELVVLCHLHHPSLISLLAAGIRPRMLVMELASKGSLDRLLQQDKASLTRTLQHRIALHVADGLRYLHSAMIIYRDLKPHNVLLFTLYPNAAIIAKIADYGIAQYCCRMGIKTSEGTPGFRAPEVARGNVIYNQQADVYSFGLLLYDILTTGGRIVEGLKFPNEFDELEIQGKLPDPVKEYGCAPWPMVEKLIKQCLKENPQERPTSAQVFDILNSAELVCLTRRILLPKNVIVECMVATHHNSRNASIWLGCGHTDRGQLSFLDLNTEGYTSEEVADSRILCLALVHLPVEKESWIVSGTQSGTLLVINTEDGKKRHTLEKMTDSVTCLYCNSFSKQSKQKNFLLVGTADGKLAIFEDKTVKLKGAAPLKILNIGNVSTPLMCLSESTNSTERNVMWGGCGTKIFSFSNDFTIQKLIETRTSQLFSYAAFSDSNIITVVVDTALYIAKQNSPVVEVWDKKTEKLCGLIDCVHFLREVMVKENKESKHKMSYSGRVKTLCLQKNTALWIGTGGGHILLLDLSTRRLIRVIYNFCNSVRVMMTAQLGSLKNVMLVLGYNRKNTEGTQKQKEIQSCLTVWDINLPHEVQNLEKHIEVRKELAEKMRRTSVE

Ki (SYK kinase) [nM] | IC50 (LRRK2) [nM] | IC50 (MYLK) [nM] | SMILES
10 to 100 | 100 to 1000 | < 5000 | CN(C)Cc1ccc(Nc2nc(-c3ccccc3)nc3cn[nH]c23)cc1 [Example #120, N-(4-((dimethylamino)methyl)phenyl)-5-phenyl-1H-pyrazolo[4,3-d]pyrimidin-7-amine]
10 to 100 | 100 to 1000 | < 5000 | c1ccn2cc(-c3nc(Nc4ccc5cn[nH]c5c4)c4[nH]ncc4n3)nc2c1 [Example #127, 5-(imidazo[1,2-a]pyridin-2-yl)-N-(1H-indazol-6-yl)-1H-pyrazolo[4,3-d]pyrimidin-7-amine]
< 10 | 100 to 1000 | < 5000 | COc1cccc(-c2nc(Nc3ccc(CN4CCN(C)CC4)cc3)c3[nH]ncc3n2)c1 [Example #131, 5-(3-methoxyphenyl)-N-(4-((4-methylpiperazin-1-yl)methyl)phenyl)-1H-pyrazolo[4,3-d]pyrimidin-7-amine]
< 10 | 100 to 1000 | < 5000 | COc1cccc(-c2nc(Nc3ccc(CN4CCCC4)cc3)c3[nH]ncc3n2)c1 [Example #132, 5-(3-methoxyphenyl)-N-(4-(pyrrolidin-1-ylmethyl)phenyl)-1H-pyrazolo[4,3-d]pyrimidin-7-amine]
< 10 | 100 to 1000 | < 5000 | CN1CCN(C(=O)c2ccc(Nc3nc(-c4cccs4)nc4cn[nH]c34)cc2)CC1 [Example #134, (4-methylpiperazin-1-yl)(4-((5-(thiophen-2-yl)-1H-pyrazolo[4,3-d]pyrimidin-7-yl)amino)phenyl)methanone]
< 10 | 100 to 1000 | < 5000 | CC(=O)N1CCN(c2ccc(Nc3nc(-c4cccs4)nc4cn[nH]c34)cc2)CC1 [Example #138, 1-(4-(4-((5-(thiophen-2-yl)-1H-pyrazolo[4,3-d]pyrimidin-7-yl)amino)phenyl)piperazin-1-yl)ethan-1-one]
10 to 100 | 10 to 100 | < 5000 | COc1cc(C(=O)N2CCC(N3CCN(C)CC3)CC2)ccc1Nc1nc(-c2cccs2)nc2cn[nH]c12 [Example #139, (3-methoxy-4-((5-(thiophen-2-yl)-1H-pyrazolo[4,3-d]pyrimidin-7-yl)amino)phenyl)(4-(4-methylpiperazin-1-yl)piperidin-1-yl)methanone]
< 10 | 10 to 100 | < 5000 | O=S1(=O)CCN(c2ccc(Nc3nc(-c4ccsc4)nc4cn[nH]c34)cc2)CC1 [Example #143, 4-(4-((5-(thiophen-3-yl)-1H-pyrazolo[4,3-d]pyrimidin-7-yl)amino)phenyl)thiomorpholine 1,1-dioxide]
< 10 | < 10 | < 5000 | CC(=O)N1CCN(c2ccc(Nc3nc(-c4ccsc4)nc4cn[nH]c34)cc2)CC1 [Example #144, 1-(4-(4-((5-(thiophen-3-yl)-1H-pyrazolo[4,3-d]pyrimidin-7-yl)amino)phenyl)piperazin-1-yl)ethan-1-one]
10 to 100 | 10 to 100 | < 5000 | CN1CCN(C(=O)c2ccc(Nc3nc(-c4ccsc4)nc4cn[nH]c34)cc2)CC1 [Example #147, (4-methylpiperazin-1-yl)(4-((5-(thiophen-3-yl)-1H-pyrazolo[4,3-d]pyrimidin-7-yl)amino)phenyl)methanone]
< 10 | 10 to 100 | < 5000 | CC(C)(C)N1CCN(c2ccc(Nc3nc(-c4ccsc4)nc4cn[nH]c34)cc2)CC1 [Example #161, N-(4-(4-(tert-butyl)piperazin-1-yl)phenyl)-5-(thiophen-3-yl)-1H-pyrazolo[4,3-d]pyrimidin-7-amine]
< 10 | 100 to 1000 | < 5000 | CC(C)(C)N1CCN(c2ccc(Nc3nc(-c4cccs4)nc4cn[nH]c34)cc2)CC1 [Example #163, N-(4-(4-(tert-butyl)piperazin-1-yl)phenyl)-5-(thiophen-2-yl)-1H-pyrazolo[4,3-d]pyrimidin-7-amine]
< 10 | 100 to 1000 | < 5000 | COc1ccc(-c2nc(Nc3ccc(N4CCN(C(C)(C)C)CC4)cc3)c3[nH]ncc3n2)cc1 [Example #172, N-(4-(4-(tert-butyl)piperazin-1-yl)phenyl)-5-(4-methoxyphenyl)-1H-pyrazolo[4,3-d]pyrimidin-7-amine]
< 10 | 100 to 1000 | < 5000 | CN1CCN(c2ccc(Nc3nc(-c4nccs4)nc4cn[nH]c34)cc2)CC1 [Example #179, N-(4-(4-methylpiperazin-1-yl)phenyl)-5-(thiazol-2-yl)-1H-pyrazolo[4,3-d]pyrimidin-7-amine]

Further lines, the compound ahead of its results:

SMILES | Ki (SYK kinase) [nM] | IC50 (LRRK2) [nM] | IC50 (MYLK) [nM]
COc1cccc(-c2nc(Nc3ccc(N4CCN(C)CC4)cc3)c3[nH]ncc3n2)c1 [Example #62, 5-(3-methoxyphenyl)-N-(4-(4-methylpiperazin-1-yl)phenyl)-1H-pyrazolo[4,3-d]pyrimidin-7-amine] | < 10 | 10 to 100 | < 5000
COc1ccc(Nc2nc(-c3cccs3)nc3cn[nH]c23)cc1OC [Example #68, N-(3,4-dimethoxyphenyl)-5-(thiophen-2-yl)-1H-pyrazolo[4,3-d]pyrimidin-7-amine] | < 10 | 100 to 1000 | < 5000
CN1CCN(c2ccc(Nc3nc(-c4cccs4)nc4cn[nH]c34)cc2)CC1 [Example #70, N-(4-(4-methylpiperazin-1-yl)phenyl)-5-(thiophen-2-yl)-1H-pyrazolo[4,3-d]pyrimidin-7-amine] | < 10 | 10 to 100 | < 5000
CN1CCN(c2ccc(Nc3nc(-c4ccsc4)nc4cn[nH]c34)cc2)CC1 [Example #74, N-(4-(4-methylpiperazin-1-yl)phenyl)-5-(thiophen-3-yl)-1H-pyrazolo[4,3-d]pyrimidin-7-amine] | < 10 | 100 to 1000 | < 5000
Oc1cccc(Nc2nc(-c3cccs3)nc3cn[nH]c23)c1 [Example #83, 3-((5-(thiophen-2-yl)-1H-pyrazolo[4,3-d]pyrimidin-7-yl)amino)phenol] | 10 to 100 | 100 to 1000 | < 5000
c1csc(-c2nc(Nc3ccc4c(c3)NCCO4)c3[nH]ncc3n2)c1 [Example #91, N-(5-(thiophen-2-yl)-1H-pyrazolo[4,3-d]pyrimidin-7-yl)-3,4-dihydro-2H-benzo[b][1,4]oxazin-6-amine] | < 10 | 10 to 100 | < 5000
CN1CCN(c2ccc(Nc3nc(-c4nc5ccccc5s4)nc4cn[nH]c34)cc2)CC1 [Example #95, 5-(benzo[d]thiazol-2-yl)-N-(4-(4-methylpiperazin-1-yl)phenyl)-1H-pyrazolo[4,3-d]pyrimidin-7-amine] | < 10 | 10 to 100 | < 5000
c1ccc2sc(-c3nc(Nc4ccc5c(c4)NCCO5)c4[nH]ncc4n3)nc2c1 [Example #97, N-(5-(benzo[d]thiazol-2-yl)-1H-pyrazolo[4,3-d]pyrimidin-7-yl)-3,4-dihydro-2H-benzo[b][1,4]oxazin-6-amine] | 10 to 100 | 100 to 1000 | < 5000
CN1CCN(c2ccc(Nc3nc(-c4cccc(-c5cccnc5)c4)nc4cn[nH]c34)cc2)CC1 [Example #99, N-(4-(4-methylpiperazin-1-yl)phenyl)-5-(3-(pyridin-3-yl)phenyl)-1H-pyrazolo[4,3-d]pyrimidin-7-amine] | < 10 | 100 to 1000 | < 5000
CN(C)c1cccc(Nc2nc(-c3ccsc3)nc3cn[nH]c23)c1 [Example #114, N1,N1-dimethyl-N3-(5-(thiophen-3-yl)-1H-pyrazolo[4,3-d]pyrimidin-7-yl)benzene-1,3-diamine] | 10 to 100 | 100 to 1000 | < 5000
Nc1cccc(Nc2nc(-c3ccsc3)nc3cn[nH]c23)c1 [Example #117, N1-(5-(thiophen-3-yl)-1H-pyrazolo[4,3-d]pyrimidin-7-yl)benzene-1,3-diamine] | < 10 | 10 to 100 | < 5000
CN1CCN(c2ccc(Nc3nc(-c4ccsc4)nc4cn[nH]c34)cn2)CC1 [Example #118, N-(6-(4-methylpiperazin-1-yl)pyridin-3-yl)-5-(thiophen-3-yl)-1H-pyrazolo[4,3-d]pyrimidin-7-amine] | < 10 | 10 to 100 | < 5000
